Source: PubChem BioAssay (NCI)
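Following 48 hours of exposure in 96-well plates, responses at five concentrations were used to interpolate endpoints linearly. GI50 marks 50% less growth. TGI denotes the concentration required for complete inhibition of growth.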

Columns and labels:
Experiment in all cases: growth of human tumour cells (NCI), 48 h
[1] = system: MDA-MB-435
[2] = system: HL-60(TB) leukemia
[3] = system: CCRF-CEM leukemia
[4] = system: SK-OV-3 ovarian
[5] = system: SF-539 CNS
[6] = system: SK-MEL-5 melanoma
[7] = system: ACHN renal
[8] = system: MALME-3M melanoma
[9] = system: K-562 leukemia
[10] = system: IGROV1 ovarian
[11] = system: A498 renal
[12] = system: A549 NSCLC
[13] = system: HCT-15 colon
[14] = system: KM12 colon
[15] = system: SR leukemia
[16] = system: HT29 colon
[17] = system: MDA-MB-231 breast
[18] = system: OVCAR-4 ovarian
[19] = system: OVCAR-5 ovarian
[20] = system: SNB-19 CNS
[21] = system: UO-31 renal
[22] = system: NCI/ADR-RES ovarian
[23] = system: OVCAR-3 ovarian
[24] = system: NCI-H23 lung
[25] = system: NCI-H226 lung
[26] = system: HS 578T breast
[27] = system: MCF7 breast
[28] = system: PC-3 prostate
[29] = system: COLO 205 colon
[30] = system: UACC-257 melanoma
[31] = system: BT-549 breast
[32] = system: NCI-H460 lung
[33] = system: SNB-75 CNS
[34] = system: DU-145 prostate
[35] = system: 786-0 renal
[36] = system: M14 melanoma
[37] = system: RXF 393 renal
[38] = system: UACC-62 melanoma
[39] = system: SW-620 colon
[40] = system: MOLT-4 leukemia
[41] = system: NCI-H522 lung
[42] = system: SK-MEL-2 melanoma
[43] = system: HOP-92 NSCLC
[44] = system: TK-10 renal
[45] = system: SN12C renal
[46] = system: LOX IMVI melanoma
[47] = system: HCC-2998 colon
[48] = system: T-47D breast
[49] = system: CAKI-1 renal
[50] = system: SK-MEL-28 melanoma
[51] = system: HCT-116 colon
[52] = system: SF-295 CNS
[53] = system: SF-268 CNS
[54] = system: HOP-62 NSCLC
[55] = system: U251 CNS
[56] = system: RPMI-8226 leukemia
[57] = system: OVCAR-8 ovarian

## CC(C)OP(=O)(OC(C)C)c1ncc(-c2ccc(C(F)(F)F)cc2)c(NC2CCCCCC2)n1
[1]
  GI50: > 10 µM
  TGI: > 10 µM
[2]
  GI50: > 10 µM
  TGI: > 10 µM
[3]
  GI50: > 10 µM
  TGI: > 10 µM
[4]
  GI50: > 10 µM
  TGI: > 10 µM
[5]
  GI50: > 10 µM
  TGI: > 10 µM
[6]
  GI50: > 10 µM
  TGI: > 10 µM
[7]
  GI50: > 10 µM
  TGI: > 10 µM
[8]
  GI50: > 10 µM
  TGI: > 10 µM
[9]
  GI50: > 10 µM
  TGI: > 10 µM
[10]
  GI50: > 10 µM
  TGI: > 10 µM
[11]
  GI50: > 10 µM
  TGI: > 10 µM
[12]
  GI50: > 10 µM
  TGI: > 10 µM
[13]
  GI50: > 10 µM
  TGI: > 10 µM
[14]
  GI50: > 10 µM
  TGI: > 10 µM
[15]
  GI50: > 10 µM
  TGI: > 10 µM
[16]
  GI50: > 10 µM
  TGI: > 10 µM
[17]
  GI50: > 10 µM
  TGI: > 10 µM
[18]
  GI50: > 10 µM
  TGI: > 10 µM
[19]
  GI50: > 10 µM
  TGI: > 10 µM
[20]
  GI50: > 10 µM
  TGI: > 10 µM
[21]
  GI50: > 10 µM
  TGI: > 10 µM
[22]
  GI50: > 10 µM
  TGI: > 10 µM
[23]
  GI50: > 10 µM
  TGI: > 10 µM
[24]
  GI50: > 10 µM
  TGI: > 10 µM
[25]
  GI50: > 10 µM
  TGI: > 10 µM
[26]
  GI50: > 10 µM
  TGI: > 10 µM
[27]
  GI50: > 10 µM
  TGI: > 10 µM
[28]
  GI50: 9.51 µM
  TGI: > 10 µM
[29]
  GI50: > 10 µM
  TGI: > 10 µM
[30]
  GI50: > 10 µM
  TGI: > 10 µM
[31]
  GI50: > 10 µM
  TGI: > 10 µM
[32]
  GI50: > 10 µM
  TGI: > 10 µM
[33]
  GI50: > 10 µM
  TGI: > 10 µM
[34]
  GI50: > 10 µM
  TGI: > 10 µM
[35]
  GI50: > 10 µM
  TGI: > 10 µM
[36]
  GI50: > 10 µM
  TGI: > 10 µM
[37]
  GI50: > 10 µM
  TGI: > 10 µM
[38]
  GI50: > 10 µM
  TGI: > 10 µM
[39]
  GI50: > 10 µM
  TGI: > 10 µM
[40]
  GI50: > 10 µM
  TGI: > 10 µM
[41]
  GI50: > 10 µM
  TGI: > 10 µM
[42]
  GI50: > 10 µM
  TGI: > 10 µM
[43]
  GI50: > 10 µM
  TGI: > 10 µM
[44]
  GI50: > 10 µM
  TGI: > 10 µM
[45]
  GI50: > 10 µM
  TGI: > 10 µM
[46]
  GI50: > 10 µM
  TGI: > 10 µM
[47]
  GI50: > 10 µM
  TGI: > 10 µM
[48]
  GI50: > 10 µM
  TGI: > 10 µM
[49]
  GI50: > 10 µM
  TGI: > 10 µM
[50]
  GI50: > 10 µM
  TGI: > 10 µM
[51]
  GI50: > 10 µM
  TGI: > 10 µM
[52]
  GI50: > 10 µM
  TGI: > 10 µM
[53]
  GI50: > 10 µM
  TGI: > 10 µM
[54]
  GI50: > 10 µM
  TGI: > 10 µM
[55]
  GI50: > 10 µM
  TGI: > 10 µM
[56]
  GI50: > 10 µM
  TGI: > 10 µM
[57]
  GI50: > 10 µM
  TGI: > 10 µM
